Assay [1] deals with Xanthomonas arboricola pv. pruni CFBP5563. Description: In vitro growth inhibition (MIC). It is filed as cell-based. Particulars: TSB, 25°C, 48 h, OD 600 nm (Bioscreen C), three replicates, experiment repeated twice; MIC given as range. Put shortly: (§1)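 Strains were grown 24 h at 25°C on agar, then suspended in sterile water at 10^8 CFU mL^−1 and mixed with peptide dilutions in Trypticase soy broth. Plates were incubated at 25°C with shaking and OD600 read hourly for 48 h. MIC is the lowest concentration with no growth at 48 h.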

The subject of assay [2] is Xanthomonas fragariae Xf349-9A. Description: In vitro growth inhibition (MIC). It counts as cell-based. Particulars: TSB, 25°C, 48 h, OD 600 nm (Bioscreen C), three replicates, experiment repeated twice; MIC given as range. In outline:
as §1

Assay [3] relates to Pseudomonas syringae pv. actinidiae Psa3700.1.1. Description: In vitro growth inhibition (MIC). It counts as cell-based. Particulars: TSB, 25°C, 48 h, OD 600 nm (Bioscreen C), three replicates, experiment repeated twice; MIC given as range. In outline: as §1
For assay [4], the system named is Pseudomonas syringae pv. syringae EPS94. In words: In vitro growth inhibition (MIC). It counts as cell-based. Particulars: TSB, 25°C, 48 h, OD 600 nm (Bioscreen C), three replicates, experiment repeated twice; MIC given as range. Put shortly: as §1
The test system of assay [5] is Erwinia amylovora PMV6076. In words: In vitro growth inhibition (MIC). The following applies: TSB, 25°C, 48 h, OD 600 nm (Bioscreen C), three replicates, experiment repeated twice; MIC = lowest concentration with no growth, given as range. It counts as cell-based. In outline:
as §1

Assay [6] deals with X. axonopodis pv. vesicatoria strain 206 on tomato plants (cv. Rio grande). In words: Bacterial spot of tomato, whole-plant infection assay. Particulars: peptide sprayed at 125 μM 24 h before inoculation with 10^8 CFU/mL, severity 13 days after inoculation, two independent experiments, three replicates of three plants, Tukey's test P < 0.05. It counts as in vivo. The protocol:
The effect of the peptide conjugates flg15-BP387, flg15-BP475, and PIP1-BP475 and the monomers flg15 and PIP1 to reduce bacterial spot infection, caused by X. axonopodis pv. vesicatoria, was tested in potted tomato plant assays (Fig. 4).
FIG 4 Effect of the peptides on the bacterial spot of tomato plant severity. Two independent experiments were performed. Disease severity was evaluated in tomato plants 13 days after pathogen inoculation. A nontreated control (NTC) and a treatment with copper oxychloride were included as references. Values correspond to the mean disease severity of three replicates of three plants per each treatment, and error bars represent the confidence interval (α = 0.05). […] The photographs show the symptoms observed in nontreated (A) and flg15-BP475-treated (B) plants.
The efficacy of peptides in bacterial spot of tomato suppression was determined using whole-plant infection assays with tomato plants (cv. Rio grande) inoculated with X. axonopodis pv. vesicatoria strain 206. Tomato plants (4 weeks old) were sprayed with a hand sprayer (Herkules; Nuair, Robassomero, Italy) with 6 mL of an aqueous suspension of flg15-BP387, flg15-BP475, PIP1-BP475, flg15, and PIP1 at 125 μM. An NTC was included by spraying plants with water. A treatment with 70% copper oxychloride at 2 g/L (Cuprocol; Syngenta, Spain) was also included as a positive control. After 24 h, treated plants were spray-inoculated until the runoff point (6 mL) with a suspension of X. axonopodis pv. vesicatoria at 10^8 CFU/mL mixed with diatomaceous earth at 1 mg/mL. Plants were incubated under controlled greenhouse conditions (25 ± 2°C, 16 h light; 15 ± 2°C, 8 h dark; 60% relative humidity). The experimental design consisted of three replicates of three plants per treatment. Two independent experiments were performed. Severity of infections was determined per each replicate after 13 days of pathogen inoculation ([71]). A severity index, ranging from 0 to 4 (0, no symptoms; 1, necrosis/lesions up to 25% of the leaf surface; 2, necrosis/lesions on 25 to 50% of the leaf surface; 3, severe necrosis/lesions on 50 to 75% of the leaf surface; and 4, severe necrosis/lesions on >75% of the leaf surface), was determined for each of the leaves (with 4 to 5 leaflets) of a plant, and it was used to calculate the disease severity index per plant according to the formula
where S is the severity of the infections per plant, Si is the severity index for each leaf, and n is the number of leaves measured, which is multiplied by the maximum severity index (i.e., 4). Then, the mean of the severity index of the three plants of each replicate was calculated. The effect of peptide treatments on plant material infection was determined using analysis of variance (ANOVA). […]

In assay [7] the test system is Xanthomonas axonopodis pv. vesicatoria 2133-2. The following applies: TSB, 25°C, 48 h, OD 600 nm (Bioscreen C), three replicates, experiment repeated twice; MIC given as range. In outline:
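Bacteria grown 24 h (48 h for Xanthomonas axonopodis, X. fragariae) at 25°C, suspended at 10^8 CFU mL^−1, mixed with peptide dilutions in TSB.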

Entries after “also recorded” stand apart in the source; their conditions may differ. Non-standard residues stand in square brackets, D forms with d. Residues, ends and D or L forms follow the SMILES beside them. *: point of attachment. Butyryl = CCCC(=O)*

As to `CCCC(=O)NCCCC[C@H](NC(=O)[C@H](CCCCN)NC(=O)[C@H](CC(C)C)NC(=O)[C@@H](NC(=O)[C@H](CCCCN)NC(=O)[C@H](CCCCN)NC(=O)[C@@H](Cc1ccccc1)NC(=O)[C@H](CC(C)C)NC(=O)[C@H](CCCCN)NC(=O)[C@H](CCCCN)NC(=O)[C@H](Cc1c[nH]cn1)NC(=O)[C@@H](NC(=O)[C@H](Cc1c[nH]cn1)NC(=O)[C@@H](NC(=O)CNC(=O)[C@H](Cc1ccc(O)cc1)NC(C)=O)[C@@H](C)CC)[C@@H](C)O)[C@@H](C)CC)C(=O)N[C@@H](CC(C)C)C(N)=O` [PIP1-BP475] (Ac-YGIHTHKKL[dF]KKILKK(Butyryl)L-NH2), the “MIC, Xap” value in assay [1] was under 0.8 µM. Also, the “MIC, Xf” value in assay [2] was 12.5 to 25 µM. The “MIC, Psa” value in assay [3] lay in the range of 1.6 to 3.1 µM. Besides, the “MIC, Pss” value in assay [4] lay in the range of 3.1 to 6.2 µM. In addition, the “MIC, Ea” value in assay [5] lay within 3.1 to 6.2 µM. Further, the “Effect on severity of bacterial spot of tomato” value (“Effect on severity” for short) in assay [6] is “showed the same efficacy in reducing the disease as their respective monomers flg15 and PIP1, except for PIP1-BP475 in one of the experiments”. For the same molecule, the “MIC, Xav” value in assay [7] was under 0.8 µM.

Turning to RINSAKDDAAGLQIA-OH [flg15], the “MIC, Xap” value in assay [1] is over 100 µM. Besides, in assay [2], the “MIC, Xf” value was over 100 µM. Moreover, in assay [3], the “MIC, Psa” value was over 100 µM. Also, the “MIC, Pss” value in assay [4] was over 100 µM. In addition, the “MIC, Ea” value in assay [5] is over 100 µM. Besides, the “Effect on severity” value in assay [6] is on record as “significantly reduced the severity of bacterial spot of tomato compared to the nontreated control in both experiments”. The “MIC, Xav” value in assay [7] is over 100 µM.

`CCCC(=O)NCCCC[C@H](NC(=O)[C@H](CCCCN)NC(=O)[C@H](CC(C)C)NC(=O)[C@@H](NC(=O)[C@H](CCCCN)NC(=O)[C@H](CCCCN)NC(=O)[C@@H](Cc1ccccc1)NC(=O)[C@H](CC(C)C)NC(=O)[C@H](CCCCN)NC(=O)[C@H](CCCCN)NC(=O)[C@H](C)NC(=O)[C@@H](NC(=O)[C@H](CCC(N)=O)NC(=O)[C@H](CC(C)C)NC(=O)CNC(=O)[C@H](C)NC(=O)[C@H](C)NC(=O)[C@H](CC(=O)O)NC(=O)[C@H](CC(=O)O)NC(=O)[C@H](CCCCN)NC(=O)[C@H](C)NC(=O)[C@H](CO)NC(=O)[C@H](CC(N)=O)NC(=O)[C@@H](NC(=O)[C@H](CCCNC(=N)N)NC(C)=O)[C@@H](C)CC)[C@@H](C)CC)[C@@H](C)CC)C(=O)N[C@@H](CC(C)C)C(N)=O` [flg15-BP475] (Ac-RINSAKDDAAGLQIAKKL[dF]KKILKK(Butyryl)L-NH2): the “MIC, Xap” value in assay [1] was under 0.8 µM. Also, in assay [2], the “MIC, Xf” value was in the range of 6.2 to 12.5 µM. Further, the “MIC, Psa” value in assay [3] was 3.1 to 6.2 µM. Besides, the “MIC, Pss” value in assay [4] was 12.5 to 25 µM. Further, in assay [5], the “MIC, Ea” value was 3.1 to 6.2 µM. In addition, the “Effect on severity” value in assay [6] was “decreased the severity of the disease compared to treatment with flg15, this reduction being significant in one of the experiments; also recorded: showed the same or more efficacy in reducing disease infection than treatment with copper oxychloride”. Also, in assay [7], the “MIC, Xav” value was under 0.8 µM.

For YGIHTH-NH2 [PIP1], in assay [1], the “MIC, Xap” value was over 50 µM. In addition, the “MIC, Xf” value in assay [2] was over 50 µM. For the same molecule, in assay [3], the “MIC, Psa” value was over 50 µM. Also, in assay [4], the “MIC, Pss” value is over 50 µM. Further, the “MIC, Ea” value in assay [5] was over 50 µM. The “Effect on severity” value in assay [6] is recorded as “only reduced the severity of the disease in one of the experiments”. The “MIC, Xav” value in assay [7] was over 50 µM.

Values taken from publication PMC9238401, “Peptide Conjugates Derived from flg15, Pep13, and PIP1 That Are Active against Plant-Pathogenic Bacteria and Trigger Plant Defense Responses” (Applied and Environmental Microbiology, 2022).
